According to patent publication US20250134869A1, “Pyrrolo[2,3-d]pyrimidinyl, Pyrrolo[2,3-b]pyrazinyl and Pyrrolo[2,3-d]pyridinyl Acryla-mides” (Pfizer Inc, priority 2021, published 2025):
Where two headings read alike, the source gives them in different places.

Target: JAK3 enzyme (Homo sapiens (Human), UniProt P52333)
Assay: JAK Caliper Enzyme Assay at 4 μM or 1 mM ATP
Format: biochemical
[1] = read-out: JAK3 (4 μM ATP) IC50, 4 μM ATP
[2] = read-out: JAK3 (1 mM ATP) IC50, 1 mM ATP

Chain of JAK3 enzyme (P52333 whole entry, species assumed): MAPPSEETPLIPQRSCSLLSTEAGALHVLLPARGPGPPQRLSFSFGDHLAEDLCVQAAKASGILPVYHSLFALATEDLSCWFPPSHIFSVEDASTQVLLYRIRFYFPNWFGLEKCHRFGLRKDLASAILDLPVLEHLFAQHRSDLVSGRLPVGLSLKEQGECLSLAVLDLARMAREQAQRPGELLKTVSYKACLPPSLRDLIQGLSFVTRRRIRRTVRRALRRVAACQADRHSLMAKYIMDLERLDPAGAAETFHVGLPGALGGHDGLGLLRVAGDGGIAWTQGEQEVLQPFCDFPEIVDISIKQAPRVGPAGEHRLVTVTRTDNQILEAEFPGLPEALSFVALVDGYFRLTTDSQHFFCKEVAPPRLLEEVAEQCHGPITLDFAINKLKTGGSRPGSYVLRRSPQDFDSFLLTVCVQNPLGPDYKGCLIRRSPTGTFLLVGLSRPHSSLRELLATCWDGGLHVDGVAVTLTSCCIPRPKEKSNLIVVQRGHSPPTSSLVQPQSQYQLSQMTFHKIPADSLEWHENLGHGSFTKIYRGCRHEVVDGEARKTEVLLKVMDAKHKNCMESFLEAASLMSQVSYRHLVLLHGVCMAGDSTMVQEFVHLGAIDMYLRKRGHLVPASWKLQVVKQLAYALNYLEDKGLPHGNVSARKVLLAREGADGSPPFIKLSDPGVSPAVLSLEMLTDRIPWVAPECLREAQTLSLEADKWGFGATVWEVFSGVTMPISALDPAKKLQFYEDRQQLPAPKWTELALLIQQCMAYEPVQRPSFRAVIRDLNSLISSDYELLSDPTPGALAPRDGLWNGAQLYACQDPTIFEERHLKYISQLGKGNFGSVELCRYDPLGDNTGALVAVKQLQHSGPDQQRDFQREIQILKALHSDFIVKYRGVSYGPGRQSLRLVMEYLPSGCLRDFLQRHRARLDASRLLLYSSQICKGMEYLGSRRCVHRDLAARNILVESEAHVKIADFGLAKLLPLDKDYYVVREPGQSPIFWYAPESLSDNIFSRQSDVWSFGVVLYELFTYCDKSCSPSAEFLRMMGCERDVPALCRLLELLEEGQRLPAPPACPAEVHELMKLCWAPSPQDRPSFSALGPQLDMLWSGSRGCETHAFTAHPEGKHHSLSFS

| IC50 [1] [nM] | IC50 [2] [nM] | SMILES |
| --- | --- | --- |
| 8.1 | 692 | C=CC(=O)NC1CN(c2cnc3[nH]cc(C(=O)NC(C)C)c3n2)C1 [Example 173, 2-[3-(acryloylamino)azetidin-1-yl]-N-(propan-2-yl)-5H-pyrrolo[2,3-b]pyrazine-7-carboxamide] |
| 225 | – | C=CC(=O)N1CCC[C@@H](Nc2ncnc3[nH]cc(C(=O)N(C)C)c23)C1 [Example 142, 4-{[(3R)-1-acryloylpiperidin-3-yl]amino}-N,N-dimethyl-7H-pyrrolo[2,3-d]pyrimidine-5-carboxamide] |
| 5 | 480 | C=CC(=O)N1CCN(c2cnc3[nH]cc(C(=O)NC(C)C)c3n2)[C@@H](CC)C1 [Example 325, 2-[(2S)-4-acryloyl-2-ethylpiperazin-1-yl]-N-(propan-2-yl)-5H-pyrrolo[2,3-b]pyrazine-7-carboxamide] |
| 29.4 | 3440 | C=CC(=O)N1CC2(C1)CN(c1cnc3[nH]cc(C(=O)NC(C)C)c3n1)C2C (stereo not shown) [Example 322, 2-(6-acryloyl-1-methyl-2,6-diazaspiro[3.3]hept-2-yl)-N-(propan-2-yl)-5H-pyrrolo[2,3-b]pyrazine-7-carboxamide] |
| 1.1 | 95.6 | C=CC(=O)N1CC(Nc2cnc3[nH]ccc3n2)C1 [Example 337, 1-(3-((5H-Pyrrolo[2,3-b]pyrazin-2-yl)amino)azetidin-1-yl)prop-2-en-1-one] |
| 0.3 | 9 | C=CC(=O)N1CCC(Nc2cnc3[nH]cc(C(=O)N[C@@H](C)CCC)c3n2)CC1 [Example 267, 2-[(1-acryloylpiperidin-4-yl)amino]-N-[(2S)-pentan-2-yl]-5H-pyrrolo[2,3-b]pyrazine-7-carboxamide] |
| 54.4 | 4820 | C=CC(=O)N1CCC[C@@H](Nc2ncnc3[nH]cc(-c4ccc5c(cnn5C)c4)c23)C1 [Example 34, 1-[(3R)-3-{[5-(1-methyl-1H-indazol-5-yl)-7H-pyrrolo[2,3-d]pyrimidin-4-yl]amino}piperidin-1-yl]prop-2-en-1-one] |
| 2.9 | 386 | C=CC(=O)N1CCC(Oc2cnc3[nH]cc(-c4cncnc4)c3n2)CC1 [Example 215, 1-(4-{[7-(pyrimidin-5-yl)-5H-pyrrolo[2,3-b]pyrazin-2-yl]oxy}piperidin-1-yl)prop-2-en-1-one] |
| 0.6 | 47.1 | C=CC(=O)N1C[C@H](Nc2ncnc3[nH]cc(C#N)c23)CC[C@@H]1C [Example 163, 4-{[(3R,6S)-1-Acryloyl-6-methylpiperidin-3-yl]amino}-7H-pyrrolo[2,3-d]pyrimidine-5-carbonitrile] |
| 654 | > 10000 | O=C(/C=C\CO)N1CCC[C@@H](Nc2ncnc3[nH]ccc23)C1 [Example 100, (2Z)-4-hydroxy-1-[(3R)-3-(7H-pyrrolo[2,3-d]pyrimidin-4-ylamino)piperidin-1-yl]but-2-en-1-one] |
| 83 | – | C=CC(=O)N1CCC[C@@H](Nc2ncnc3[nH]cc(-c4cnc(N5CCOCC5)nc4)c23)C1 [Example 35, 1-[(3R)-3-({5-[2-(morpholin-4-yl)pyrimidin-5-yl]-7H-pyrrolo[2,3-d]pyrimidin-4-yl}amino)piperidin-1-yl]prop-2-en-1-one] |
| 0.1 | 10.7 | C=CC(=O)N1CCC(Nc2cnc3[nH]cc(C(=O)NCCCC#N)c3n2)CC1 [Example 242, 2-[(1-acryloylpiperidin-4-yl)amino]-N-(3-cyanopropyl)-5H-pyrrolo[2,3-b]pyrazine-7-carboxamide] |
| 0.1 | 8.3 | C=CC(=O)N1CCC(Nc2cnc3[nH]cc(C(=O)NC4CCCC(F)(F)C4)c3n2)CC1 (stereo not shown) [Example 236, 2-[(1-acryloylpiperidin-4-yl)amino]-N-(3,3-difluorocyclohexyl)-5H-pyrrolo[2,3-b]pyrazine-7-carboxamide] |
| 110 | – | C/C=C/C(=O)N1CCC[C@@H](Nc2ncnc3[nH]cc(Cc4ccc(O)cc4)c23)C1 [Example 138, (2E)-1-[(3R)-3-{[5-(4-Hydroxybenzyl)-7H-pyrrolo[2,3-d]pyrimidin-4-yl]amino}piperidin-1-yl]but-2-en-1-one] |
| 0.4 | 5.2 | C=CC(=O)N1CCC(Nc2cnc3[nH]cc(C(=O)NC45CC(C4)C5)c3n2)CC1 [Example 281, 2-[(1-acryloylpiperidin-4-yl)amino]-N-(bicyclo[1.1.1]pent-1-yl)-5H-pyrrolo[2,3-b]pyrazine-7-carboxamide] |
| 295 | – | C=CC(=O)N1CCC[C@@H](Nc2ncnc3[nH]cc(C4CC4)c23)C1 [Example 37, 1-{(3R)-3-[(5-cyclopropyl-7H-pyrrolo[2,3-d]pyrimidin-4-yl)amino]piperidin-1-yl}prop-2-en-1-one] |
| 11.4 | 975 | C=CC(=O)N[C@H]1CC[C@@H](Nc2cnc3[nH]cc(C(=O)NC(C)C)c3n2)CC1 [Example 182, 2-{[cis-4-(acryloylamino)cyclohexyl]amino}-N-(propan-2-yl)-5H-pyrrolo[2,3-b]pyrazine-7-carboxamide] |

| IC50 [1] [nM] | IC50 [2] [nM] | SMILES |
| --- | --- | --- |
| 117 | > 10000 | C=CC(=O)N1CC2(C1)CN(c1cnc3[nH]cc(C(=O)NC(C)C)c3n1)C2 [Example 310, 2-(6-acryloyl-2,6-diazaspiro[3.3]hept-2-yl)-N-(propan-2-yl)-5H-pyrrolo[2,3-b]pyrazine-7-carboxamide] |
| 112 | – | C=CC(=O)N1CCC[C@@H](Nc2ncnc3[nH]cc(C(=O)NC)c23)C1 [Example 145, 4-{[(3R)-1-acryloylpiperidin-3-yl]amino}-N-methyl-7H-pyrrolo[2,3-d]pyrimidine-5-carboxamide] |
| 255 | > 10000 | CC/C=C(\C#N)C(=O)N1CCC[C@@H](Nc2ncnc3[nH]ccc23)C1 [Example 99, (2E)-2-{[(3R)-3-(7H-pyrrolo[2,3-d]pyrimidin-4-ylamino)piperidin-1-yl]carbonyl}pent-2-enenitrile] |
| 9 | 650 | C=CC(=O)N1CCC[C@@H](Nc2ncnc3[nH]cc(CCC#N)c23)C1 [Example 62, 3-(4-{[(3R)-1-Acryloylpiperidin-3-yl]amino}-7H-pyrrolo[2,3-d]pyrimidin-5-yl)propanenitrile] |
| > 10000 | – | C/C=C/C(=O)N1CCC[C@@H](N(C)c2ncnc3[nH]cc(CCOC)c23)C1 [Example 135, (2E)-1-[(3R)-3-{[5-(2-Methoxyethyl)-7H-pyrrolo[2,3-d]pyrimidin-4-yl](methyl)amino}-piperidin-1-yl]but-2-en-1-one] |
| 2 | 203 | C=CC(=O)N1CCC[C@@H](Nc2ncnc3[nH]cc(CCO)c23)C1 [Example 55, (R)-1-(3-((5-(2-Hydroxyethyl)-7H-pyrrolo[2,3-d]pyrimidin-4-yl)amino)piperidin-1-yl)prop-2-en-1-one] |
| 1 | 168 | C=CC(=O)N1CCC[C@@H](Nc2ncnc3[nH]cc(C#N)c23)C1 [Example 45, 4-{[(3R)-1-acryloylpiperidin-3-yl]amino}-7H-pyrrolo[2,3-d]pyrimidine-5-carbonitrile] |
| 42.8 | 4730 | C=CC(=O)N(C)C1CCN(c2cnc3[nH]cc(C(=O)NC(C)C)c3n2)CC1 [Example 169, 2-{4-[acryloyl(methyl)amino]piperidin-1-yl}-N-(propan-2-yl)-5H-pyrrolo[2,3-b]pyrazine-7-carboxamide] |
| 0.3 | 21.3 | C=CC(=O)N1CCC(C)(Nc2cnc3[nH]cc(C(=O)NC(C)C)c3n2)CC1 [Example 318, 2-[(1-acryloyl-4-methylpiperidin-4-yl)amino]-N-(propan-2-yl)-5H-pyrrolo[2,3-b]pyrazine-7-carboxamide] |
| 0.4 | 32.7 | C=CC(=O)N1CC[C@H](Nc2cnc3[nH]cc(C(=O)NC(C)C)c3n2)C1 [Example 171, 2-{[(3S)-1-acryloylpyrrolidin-3-yl]amino}-N-(propan-2-yl)-5H-pyrrolo[2,3-b]pyrazine-7-carboxamide] |
| 5 | 662 | C=CC(=O)N1CCN(c2cnc3[nH]cc(C(=O)NC(C)C)c3n2)[C@@H](C2CC2)C1 [Example 314, 2-[(2S)-4-acryloyl-2-cyclopropylpiperazin-1-yl]-N-(propan-2-yl)-5H-pyrrolo[2,3-b]pyrazine-7-carboxamide] |
| < 0.1 | 9 | C=CC(=O)N1CCC(Nc2cnc3[nH]cc(C(=O)NC4CC(F)C4)c3n2)CC1 (stereo not shown) [Example 243, 2-[(1-acryloylpiperidin-4-yl)amino]-N-(3-fluorocyclobutyl)-5H-pyrrolo[2,3-b]pyrazine-7-carboxamide] |
| 2.5 | 361 | C=CC(=O)N1C[C@@H](C#N)C[C@@H](Nc2ncnc3[nH]ccc23)C1 [Example 58, (3S,5R)-5-((7H-pyrrolo[2,3-d]pyrimidin-4-yl)amino)-1-acryloylpiperidine-3-carbonitrile] |
| 2.3 | 308 | C=CC(=O)N1CCC(Oc2cnc3[nH]cc(-c4ccc(C)nc4)c3n2)CC1 [Example 214, 1-(4-{[7-(6-methylpyridin-3-yl)-5H-pyrrolo[2,3-b]pyrazin-2-yl]oxy}piperidin-1-yl)prop-2-en-1-one] |
| > 10000 | – | C/C=C/C(=O)N1CCC[C@@H](Nc2ncnc3[nH]cc(C(=O)N4CCCC4)c23)C1 [Example 147, (2E)-1-[(3R)-3-{[5-(pyrrolidin-1-ylcarbonyl)-7H-pyrrolo[2,3-d]pyrimidin-4-yl]amino}pipendin-1-yl]but-2-en-1-one] |
| 0.2 | 8.1 | C=CC(=O)N1CCC(Nc2cnc3[nH]cc(C(=O)N[C@@H]4CCC[C@@H]4F)c3n2)CC1 [Example 251, 2-[(1-acryloylpiperidin-4-yl)amino]-N-[(1R,2S)-2-fluorocyclopentyl]-5H-pyrrolo[2,3-b]pyrazine-7-carboxamide] |
| 0.2 | 17.9 | C=CC(=O)N1CCC(Nc2cnc3[nH]cc(C(=O)NC4CC(F)(F)C4)c3n2)CC1 [Example 245, 2-[(1-acryloylpiperidin-4-yl)amino]-N-(3,3-difluorocyclobutyl)-5H-pyrrolo[2,3-b]pyrazine-7-carboxamide] |
